From ChEMBL document CHEMBL3045723, “Synthesis of novel 3-(5-sulfanyl-1,3,4-oxadiazol-2-yl)-2H-chromen-2-one condensed s-triazinyl piperazines and piperidines as antimicrobial agents” (2012)
Converted amounts (≈) assume the structure as drawn.

Columns and labels:
Assay type in all cases: functional
[1] = system: Pseudomonas aeruginosa; test: Antibacterial activity against Pseudomonas aeruginosa MTCC 741 after 24 hr by agar disk diffusion test
[2] = system: Shigella flexneri; test: Antibacterial activity against Shigella flexneri after 24 hr
[3] = system: Bacillus cereus; test: Antibacterial activity against Bacillus cereus MTCC 619 after 24 hr by agar disk diffusion test; note: test concentration or dose not given here
[4] = system: Proteus vulgaris; test: Antibacterial activity against Proteus vulgaris MTCC 1771 after 24 hr; conditions: MTCC 1771, 24 h
[5] = system: Staphylococcus aureus; test: Antibacterial activity against Staphylococcus aureus MTCC 96 after 24 hr; conditions: MTCC 96, 24 h
[6] = system: Aspergillus niger; test: Antifungal activity against Aspergillus niger MTCC 282 after 48 hr; conditions: MTCC 282, 48 h
[7] = system: Klebsiella pneumoniae; test: Antibacterial activity against Klebsiella pneumoniae MTCC 109 after 24 hr by agar disk diffusion test
[8] = system: Bacillus cereus; test: Antibacterial activity against Bacillus cereus MTCC 619 after 24 hr; conditions: MTCC 619, 24 h
[9] = system: Escherichia coli; test: Antibacterial activity against Escherichia coli MTCC 739 after 24 hr by agar disk diffusion test
[10] = system: Salmonella typhi; test: Antibacterial activity against Salmonella enterica subsp. enterica serovar Typhi MTCC 733 after 24 hr by agar disk diffusion test
[11] = system: Escherichia coli; test: Antibacterial activity against Escherichia coli MTCC 739 after 24 hr; conditions: MTCC 739, 24 h
[12] = system: Klebsiella pneumoniae; test: Antibacterial activity against Klebsiella pneumoniae MTCC 109 after 24 hr; conditions: MTCC 109, 24 h
[13] = system: Proteus vulgaris; test: Antibacterial activity against Proteus vulgaris MTCC 1771 after 24 hr by agar disk diffusion test; note: test concentration or dose not given here
[14] = system: Staphylococcus aureus; test: Antibacterial activity against Staphylococcus aureus MTCC 96 after 24 hr by agar disk diffusion test
[15] = system: Candida albicans; test: Antifungal activity against Candida albicans MTCC 183 after 24 hr by agar disk diffusion test; note: test concentration or dose not given here
[16] = system: Aspergillus niger; test: Antifungal activity against Aspergillus niger MTCC 282 after 24 hr by agar disk diffusion test; note: test concentration or dose not given here
[17] = system: Pseudomonas aeruginosa; test: Antibacterial activity against Pseudomonas aeruginosa MTCC 741
[18] = system: Candida albicans; test: Antifungal activity against Candida albicans MTCC 183 after 48 hr; conditions: MTCC 183, 48 h
[19] = system: Salmonella typhi; test: Antibacterial activity against Salmonella enterica subsp. enterica serovar Typhi MTCC 733 after 24 hr; conditions: MTCC 733, 24 h
[20] = system: Shigella flexneri; test: Antibacterial activity against Shigella flexneri after 24 hr by agar disk diffusion test; note: test concentration or dose not given here

Structure (SMILES) | inhibition zone (IZ) [1] | MIC [2] | inhibition zone (IZ) [3] | MIC [4] | MIC [5] | MIC [6] | inhibition zone (IZ) [7] | MIC [8] | inhibition zone (IZ) [9] | inhibition zone (IZ) [10] | MIC [11] | MIC [12] | inhibition zone (IZ) [13] | inhibition zone (IZ) [14] | inhibition zone (IZ) [15] | inhibition zone (IZ) [16] | MIC [17] | MIC [18] | MIC [19] | inhibition zone (IZ) [20]
O=c1oc2ccccc2cc1-c1nnc(Sc2nc(Oc3cccc4cccnc34)nc(N3CCC(Cc4ccccc4)CC3)n2)o1 | <10 mm | 100 µg/mL (≈ 156 µM) | 13 mm | 100 µg/mL (≈ 156 µM) | 100 µg/mL (≈ 156 µM) | 100 µg/mL (≈ 156 µM) | <10 mm | 100 µg/mL (≈ 156 µM) | 12 mm | 14 mm | 100 µg/mL (≈ 156 µM) | 100 µg/mL (≈ 156 µM) | <10 mm | 16 mm | 13 mm | <10 mm | 100 µg/mL (≈ 156 µM) | 100 µg/mL (≈ 156 µM) | 100 µg/mL (≈ 156 µM) | 11 mm
CC1CC(C)CN(c2nc(Oc3cccc4cccnc34)nc(Sc3nnc(-c4cc5ccccc5oc4=O)o3)n2)C1 (stereo not given) | 22 mm | 25 µg/mL (≈ 43.1 µM) | 21 mm | 100 µg/mL (≈ 173 µM) | 25 µg/mL (≈ 43.1 µM) | 25 µg/mL (≈ 43.1 µM) | 16 mm | 50 µg/mL (≈ 86.3 µM) | 20 mm | 23 mm | 50 µg/mL (≈ 86.3 µM) | 100 µg/mL (≈ 173 µM) | 19 mm | 22 mm | 16 mm | 23 mm | 12.5 µg/mL (≈ 21.6 µM) | 100 µg/mL (≈ 173 µM) | 12.5 µg/mL (≈ 21.6 µM) | 24 mm
O=c1oc2ccccc2cc1-c1nnc(Sc2nc(Oc3cccc4cccnc34)nc(N3CCN(C(c4ccccc4)c4ccccc4)CC3)n2)o1 | <10 mm | 100 µg/mL (≈ 139 µM) | 14 mm | 100 µg/mL (≈ 139 µM) | 100 µg/mL (≈ 139 µM) | 100 µg/mL (≈ 139 µM) | 14 mm | 100 µg/mL (≈ 139 µM) | 13 mm | 12 mm | 100 µg/mL (≈ 139 µM) | 100 µg/mL (≈ 139 µM) | <10 mm | 18 mm | <10 mm | 11 mm | 100 µg/mL (≈ 139 µM) | 100 µg/mL (≈ 139 µM) | 100 µg/mL (≈ 139 µM) | 14 mm
O=c1oc2ccccc2cc1-c1nnc(Sc2nc(Oc3cccc4cccnc34)nc(N3CCN(C(c4ccccc4)c4ccc(Cl)cc4)CC3)n2)o1 (stereo not given) | 16 mm | 100 µg/mL (≈ 133 µM) | 21 mm | 100 µg/mL (≈ 133 µM) | 50 µg/mL (≈ 66.4 µM) | 50 µg/mL (≈ 66.4 µM) | 19 mm | 50 µg/mL (≈ 66.4 µM) | 25 mm | 19 mm | 25 µg/mL (≈ 33.2 µM) | 100 µg/mL (≈ 133 µM) | 20 mm | 20 mm | 22 mm | 22 mm | 100 µg/mL (≈ 133 µM) | 50 µg/mL (≈ 66.4 µM) | 100 µg/mL (≈ 133 µM) | 16 mm
O=c1oc2ccccc2cc1-c1nnc(Sc2nc(Oc3cccc4cccnc34)nc(N3CCN(c4ccccc4F)CC3)n2)o1 | 19 mm | 100 µg/mL (≈ 155 µM) | 20 mm | 25 µg/mL (≈ 38.7 µM) | 100 µg/mL (≈ 155 µM) | 100 µg/mL (≈ 155 µM) | 20 mm | 50 µg/mL (≈ 77.3 µM) | 23 mm | 20 mm | 25 µg/mL (≈ 38.7 µM) | 50 µg/mL (≈ 77.3 µM) | 22 mm | 19 mm | 19 mm | 21 mm | 100 µg/mL (≈ 155 µM) | 100 µg/mL (≈ 155 µM) | 50 µg/mL (≈ 77.3 µM) | 19 mm
O=c1oc2ccccc2cc1-c1nnc(Sc2nc(Oc3cccc4cccnc34)nc(N3CCN(c4ccc(F)cc4)CC3)n2)o1 | 21 mm | 100 µg/mL (≈ 155 µM) | 21 mm | 50 µg/mL (≈ 77.3 µM) | 25 µg/mL (≈ 38.7 µM) | 100 µg/mL (≈ 155 µM) | 16 mm | 50 µg/mL (≈ 77.3 µM) | 23 mm | 19 mm | 25 µg/mL (≈ 38.7 µM) | 100 µg/mL (≈ 155 µM) | 21 mm | 22 mm | 22 mm | 21 mm | 50 µg/mL (≈ 77.3 µM) | 50 µg/mL (≈ 77.3 µM) | 100 µg/mL (≈ 155 µM) | 17 mm
O=c1oc2ccccc2cc1-c1nnc(Sc2nc(Oc3cccc4cccnc34)nc(N3CCN(c4cccc(C(F)(F)F)c4)CC3)n2)o1 | 21 mm | 100 µg/mL (≈ 144 µM) | 24 mm | 25 µg/mL (≈ 35.9 µM) | 12.5 µg/mL (≈ 17.9 µM) | 25 µg/mL (≈ 35.9 µM) | 21 mm | 12.5 µg/mL (≈ 17.9 µM) | 22 mm | 21 mm | 50 µg/mL (≈ 71.8 µM) | 25 µg/mL (≈ 35.9 µM) | 23 mm | 24 mm | 21 mm | 24 mm | 25 µg/mL (≈ 35.9 µM) | 50 µg/mL (≈ 71.8 µM) | 50 µg/mL (≈ 71.8 µM) | 21 mm
COc1ccc(CN2CCN(c3nc(Oc4cccc5cccnc45)nc(Sc4nnc(-c5cc6ccccc6oc5=O)o4)n3)CC2)c(OC)c1OC | 22 mm | 25 µg/mL (≈ 34.1 µM) | 23 mm | 100 µg/mL (≈ 136 µM) | 12.5 µg/mL (≈ 17.1 µM) | 25 µg/mL (≈ 34.1 µM) | 18 mm | 12.5 µg/mL (≈ 17.1 µM) | 19 mm | 24 mm | 100 µg/mL (≈ 136 µM) | 100 µg/mL (≈ 136 µM) | 20 mm | 23 mm | 22 mm | 24 mm | 12.5 µg/mL (≈ 17.1 µM) | 50 µg/mL (≈ 68.2 µM) | 12.5 µg/mL (≈ 17.1 µM) | 23 mm
COc1ccc(N2CCN(c3nc(Oc4cccc5cccnc45)nc(Sc4nnc(-c5cc6ccccc6oc5=O)o4)n3)CC2)cc1 | 23 mm | 50 µg/mL (≈ 75.9 µM) | 23 mm | 100 µg/mL (≈ 152 µM) | 25 µg/mL (≈ 38 µM) | 25 µg/mL (≈ 38 µM) | 19 mm | 12.5 µg/mL (≈ 19 µM) | 17 mm | 24 mm | 100 µg/mL (≈ 152 µM) | 100 µg/mL (≈ 152 µM) | 18 mm | 22 mm | 22 mm | 24 mm | 12.5 µg/mL (≈ 19 µM) | 50 µg/mL (≈ 75.9 µM) | 12.5 µg/mL (≈ 19 µM) | 22 mm
O=c1oc2ccccc2cc1-c1nnc(Sc2nc(Oc3cccc4cccnc34)nc(N3CCN(c4ccccn4)CC3)n2)o1 | 18 mm | 50 µg/mL (≈ 79.4 µM) | 21 mm | 100 µg/mL (≈ 159 µM) | 50 µg/mL (≈ 79.4 µM) | 100 µg/mL (≈ 159 µM) | 22 mm | 50 µg/mL (≈ 79.4 µM) | 15 mm | 14 mm | 100 µg/mL (≈ 159 µM) | 25 µg/mL (≈ 39.7 µM) | 14 mm | 21 mm | 17 mm | 14 mm | 100 µg/mL (≈ 159 µM) | 100 µg/mL (≈ 159 µM) | 100 µg/mL (≈ 159 µM) | 22 mm
O=c1oc2ccccc2cc1-c1nnc(Sc2nc(Oc3cccc4cccnc34)nc(N3CCN(c4ncccn4)CC3)n2)o1 | 18 mm | 50 µg/mL (≈ 79.3 µM) | 22 mm | 100 µg/mL (≈ 159 µM) | 50 µg/mL (≈ 79.3 µM) | 100 µg/mL (≈ 159 µM) | 22 mm | 25 µg/mL (≈ 39.6 µM) | 19 mm | 18 mm | 100 µg/mL (≈ 159 µM) | 25 µg/mL (≈ 39.6 µM) | 16 mm | 21 mm | 17 mm | 16 mm | 100 µg/mL (≈ 159 µM) | 100 µg/mL (≈ 159 µM) | 100 µg/mL (≈ 159 µM) | 22 mm
O=c1oc2ccccc2cc1-c1nnc(Sc2nc(Oc3cccc4cccnc34)nc(N3CCN(Cc4ccccc4)CC3)n2)o1 | 19 mm | 100 µg/mL (≈ 156 µM) | 17 mm | 100 µg/mL (≈ 156 µM) | 100 µg/mL (≈ 156 µM) | 100 µg/mL (≈ 156 µM) | <10 mm | 100 µg/mL (≈ 156 µM) | 16 mm | <10 mm | 100 µg/mL (≈ 156 µM) | 100 µg/mL (≈ 156 µM) | <10 mm | 13 mm | <10 mm | <10 mm | 100 µg/mL (≈ 156 µM) | 100 µg/mL (≈ 156 µM) | 100 µg/mL (≈ 156 µM) | 13 mm
